This note sets out measurements from article PMC2579271 (Molecular cancer therapeutics, 2008).

In one assay the target is Jak2 (Jak2-WT) (Mus musculus, UniProt Q62120). As to the kind of experiment: autophosphorylation. It is filed as cell-based.
The next assay deals with Jak2-V617F (Mus musculus, UniProt Q62120, V617F). As to the kind of experiment: autophosphorylation. Format: cell-based.

SMILES strings stand for the structures.

Jak2 (Jak2-WT), sequence (Q62120 whole entry): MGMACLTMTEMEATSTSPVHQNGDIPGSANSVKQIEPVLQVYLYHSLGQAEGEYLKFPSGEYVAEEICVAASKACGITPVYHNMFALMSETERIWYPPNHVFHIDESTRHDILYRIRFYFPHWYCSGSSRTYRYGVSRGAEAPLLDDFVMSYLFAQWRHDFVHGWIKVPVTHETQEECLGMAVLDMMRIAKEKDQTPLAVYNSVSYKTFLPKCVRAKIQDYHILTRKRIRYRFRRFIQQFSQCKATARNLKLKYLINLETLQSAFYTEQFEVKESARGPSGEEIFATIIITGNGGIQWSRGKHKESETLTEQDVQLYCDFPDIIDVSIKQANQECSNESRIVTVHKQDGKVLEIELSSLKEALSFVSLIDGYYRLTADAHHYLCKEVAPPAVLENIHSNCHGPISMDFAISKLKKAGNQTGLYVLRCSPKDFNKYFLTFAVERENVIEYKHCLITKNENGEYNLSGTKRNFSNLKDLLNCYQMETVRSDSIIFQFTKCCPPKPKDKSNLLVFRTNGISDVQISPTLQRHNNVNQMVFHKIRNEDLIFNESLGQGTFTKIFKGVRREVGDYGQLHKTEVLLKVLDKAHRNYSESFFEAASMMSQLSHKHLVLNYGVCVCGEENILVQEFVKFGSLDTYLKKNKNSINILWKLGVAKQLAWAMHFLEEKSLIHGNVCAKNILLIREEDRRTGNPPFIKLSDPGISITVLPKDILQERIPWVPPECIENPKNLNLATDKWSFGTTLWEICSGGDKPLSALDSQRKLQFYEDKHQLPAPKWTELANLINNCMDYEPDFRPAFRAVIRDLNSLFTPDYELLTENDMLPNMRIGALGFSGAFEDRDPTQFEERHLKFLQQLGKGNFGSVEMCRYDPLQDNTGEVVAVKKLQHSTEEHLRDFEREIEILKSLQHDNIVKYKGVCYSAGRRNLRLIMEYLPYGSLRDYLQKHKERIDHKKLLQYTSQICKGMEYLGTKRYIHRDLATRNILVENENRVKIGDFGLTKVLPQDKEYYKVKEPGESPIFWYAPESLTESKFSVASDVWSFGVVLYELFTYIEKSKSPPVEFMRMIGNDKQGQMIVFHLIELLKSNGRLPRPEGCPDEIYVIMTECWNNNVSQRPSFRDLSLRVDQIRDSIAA
Jak2-V617F, sequence (Q62120 whole entry V617F): as the sequence (Q62120 whole entry) above, with V617F counted along it

What is called IC50 is the concentration that gives 50% inhibition. Low readings indicate inhibition by little substance, high ones a need for much substance. For the compound `CC(CCc1ccccn1)(CCc1ccccn1)C(=O)c1ccccc1` [Z3, 2-methyl-1-phenyl-4-pyridin-2-yl-2-(2-pyridin-2-ylethyl)butan-1-one], the IC50 at Jak2 (Jak2-WT) was roughly 15 µM; on Jak2-V617F, roughly 28 µM.
